# Measured values from PubChem BioAssay AID2060487 (Molecular Pharmacology Branch, DTP, NCI, 2025).
# pIC50: −log10 of the molar value.
# System: 997537-175-T-J1-PDC complex spheroid viability
# Assay: Anticancer human tumor 997537-175-T-J1-PDC patient-derived colon adenocarcinoma cell line growth inhibition [GQUAD]
# Conditions: for pIC50: curve of first compound; for viability, T/C: stronger effect = lower value
# From the text: DNA G-quadruplex Stabilizer Agents in Combinations in Complex Spheroids
# A high-throughput screen of multi-cell type tumor spheroids was designed to identify active combinations of DNA G-quadruplex stabilizer agents and targeted small molecules. Complex spheroids include a stromal component modeled by human endothelial cells (HUVEC) and fibroblasts modeled by human mesenchymal stem cells (MSCs). The concentration ranges selected for each drug and investigational agent were based upon clinically achievable concentrations if the clinical Cmax of the agent was known.
# Compounds. The drugs and investigational agents: pidnarulex (CX-5461; NSC782164), APTO-253 (NSC789042), BRACO-19 (NSC847499), peposertib (NSC802822), ceralasertib (NSC780249), elimusertib (NSC800525), camonsertib (NSC841442), AZD-1390 (NSC803789), olaparib (NSC753686), talazoparib (NSC767125), ART-558 (NSC835418), sotorasib (NSC818433), MRTX-1133 (NSC836407), SN-38 (NSC673596), topotecan (NSC609699), etoposide (NSC141540), doxorubicin (NSC123127), gemcitabine (NSC613327), 5-fluorouracil (NSC19893), paclitaxel (NSC125973), vemurafenib (NSC761431), panobinostat (NSC761190), R-306465 (JNJ-16241199; NSC773264), adavosertib (NSC754352), TP-3654 (NSC805149), carboplatin (NSC241240), KSQ-4279 (NSC840948), and staurosporine (NSC755774) were obtained from the National Cancer Institute (NCI) Developmental Therapeutics Program Chemical Repository (34). The FDA-approved anticancer drug set is available from the NCI Developmental Therapeutics Program. […] The stock solutions were prepared in dimethyl sulfoxide (DMSO, Sigma-Aldrich, St. Louis, MO, cat. D2650) at 800-fold the tested concentration and stored at -70 degrees C prior to their use. All drugs and investigational agents were tested over a range starting from a high concentration at or near the clinical Cmax and decreasing in half-log increments. If the clinical Cmax for an agent had not been determined, the highest concentration tested was 10 microM.
# 2.3 Cell Culture. All cells were maintained in an incubator at 37 degrees C and 5% CO2 with 95% humidity. The PDC lines were cultured according to standard operating procedures established by the NCI PDMR. All PDCs were thawed and cultured in Matrigel-coated flasks prepared with a working solution of 1X Ham's F-12 nutrient mix, without supplementation (Invitrogen, cat. 11765054), 100 U/mL penicillin-streptomycin (Invitrogen, cat. 15140122), and 2.5% Matrigel (Corning Inc., cat. 354248) for the first three passages. The 857933-349-R-J2-PDC line was cultured in 6C/Colon 1B media, which includes advanced DMEM/F-12 (Thermo Fisher Scientific, cat. 12634028), 10 mM HEPES (Thermo Fisher Scientific, cat. 15630080), 1X GlutaMAX supplement (Thermo Fisher Scientific, cat. 35050061), 0.1 mg/mL primocin (InvivoGen, cat. ant-pm-2), 10% defined fetal bovine serum, heat inactivated (HyClone Laboratories Inc., cat. SH30070.03HI), 50% L-WRN conditioned media (ATCC, cat. CRL-3276), 1.25 mM N-Acetyl-L-cysteine (Sigma-Aldrich, cat. A9165), 10 mM nicotinamide (Sigma-Aldrich, cat. N0636), 1X B-27 supplement (Thermo Fisher Scientific, cat. 17504044), 1X N-2 supplement (Thermo Fisher Scientific, cat. 17502048), 10 microM Y-27632 dihydrochloride (Tocris Bioscience, cat. 1254), and 50 ng/mL human EGF recombinant protein (Thermo Fisher Scientific, cat. PHG0311). The 485176-168-R4-J1-PDC line was cultured in Panc media, which includes all 6C/Colon 1B media components plus 100 ng/mL human FGF-10 (Thermo Fisher Scientific, cat. 100-26), 500 nM SB-431542 (Selleckchem, cat. S1067), and gastrin (Tocris, cat. 3006).
# […]
# 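Further: spheroids exposed to the agents for 7 days.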
# 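Wherever viability, T/C is given: 100% = DMSO vehicle control viability.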
smiles,measurement,setting,value
Nc1ccn(C2OC(CO)C(O)C2(F)F)c(=O)n1 (configuration not stated) + Cc1cnc(CNC(=O)c2c(=O)c3ccc(N4CCCN(C)CC4)nc3n3c2sc2ccccc23)cn1,pIC50,second compound 0.0316 µM,< 5.00
same,pIC50,second compound 0.1 µM,< 5.00
same,pIC50,second compound 0.316 µM,< 5.00
same,pIC50,second compound 1 µM,< 5.00
same,pIC50,second compound 3.16 µM,< 5.00
same,pIC50,second compound 10 µM,< 5.00
same,"viability, T/C","second compound 0.0316 µM, first compound 0.0316 µM",90.3%
same,"viability, T/C","second compound 0.0316 µM, first compound 0.1 µM",99.5%
same,"viability, T/C","second compound 0.0316 µM, first compound 0.316 µM",87.3%
same,"viability, T/C","second compound 0.0316 µM, first compound 1 µM",66.6%
same,"viability, T/C","second compound 0.0316 µM, first compound 3.16 µM",66.5%
same,"viability, T/C","second compound 0.0316 µM, first compound 10 µM",56.4%
same,"viability, T/C","second compound 0.1 µM, first compound 0.0316 µM",99.4%
same,"viability, T/C","second compound 0.1 µM, first compound 0.1 µM",84.5%
same,"viability, T/C","second compound 0.1 µM, first compound 0.316 µM",94.7%
same,"viability, T/C","second compound 0.1 µM, first compound 1 µM",56.4%
same,"viability, T/C","second compound 0.1 µM, first compound 3.16 µM",89.4%
same,"viability, T/C","second compound 0.1 µM, first compound 10 µM",83.8%
same,"viability, T/C","second compound 0.316 µM, first compound 0.0316 µM",93.1%
same,"viability, T/C","second compound 0.316 µM, first compound 0.1 µM",108%
same,"viability, T/C","second compound 0.316 µM, first compound 0.316 µM",69.4%
same,"viability, T/C","second compound 0.316 µM, first compound 1 µM",76.6%
same,"viability, T/C","second compound 0.316 µM, first compound 3.16 µM",94.6%
same,"viability, T/C","second compound 0.316 µM, first compound 10 µM",92.9%
same,"viability, T/C","second compound 1 µM, first compound 0.0316 µM",89.8%
same,"viability, T/C","second compound 1 µM, first compound 0.1 µM",103%
same,"viability, T/C","second compound 1 µM, first compound 0.316 µM",102%
same,"viability, T/C","second compound 1 µM, first compound 1 µM",68.3%
same,"viability, T/C","second compound 1 µM, first compound 3.16 µM",104%
same,"viability, T/C","second compound 1 µM, first compound 10 µM",77.6%
same,"viability, T/C","second compound 3.16 µM, first compound 0.0316 µM",68.8%
same,"viability, T/C","second compound 3.16 µM, first compound 0.1 µM",96.6%
same,"viability, T/C","second compound 3.16 µM, first compound 0.316 µM",106%
same,"viability, T/C","second compound 3.16 µM, first compound 1 µM",101%
same,"viability, T/C","second compound 3.16 µM, first compound 3.16 µM",85.6%
same,"viability, T/C","second compound 3.16 µM, first compound 10 µM",89.3%
same,"viability, T/C","second compound 10 µM, first compound 0.0316 µM",103%
same,"viability, T/C","second compound 10 µM, first compound 0.1 µM",85.9%
same,"viability, T/C","second compound 10 µM, first compound 0.316 µM",113%
same,"viability, T/C","second compound 10 µM, first compound 1 µM",72.9%
same,"viability, T/C","second compound 10 µM, first compound 3.16 µM",91%
same,"viability, T/C","second compound 10 µM, first compound 10 µM",73.7%
